Laboratory results from patent publication US20050049242A1 (priority 2000, published 2005).
Where two headings read alike, the source gives them in different places.

Assays:
HIV-1 IN = HIV-1 IN (Human immunodeficiency virus type 1 group M subtype B, UniProt P12497); settings: read-out: IC50 (IN dependent disintegration); purified HIV IN, MnCl2
HIVLAI = assay: Anti-HIV assay, protection from HIV-induced cell death; type: cell-based; settings: read-out: ED50 (concentration that inhibits HIV-induced cell death by 50%); HIVLAI, MT-2 cells, 72 hr
Procedure: Anti-HIV assays were performed as described above. […] The compounds were then two-fold serially diluted in triplicate. To each 50 μl of diluted compound, 50 μl of HIVLAI was added and the virus-drug mixture was incubated for 1 hr at 37° C. […] Final multiplicity of infection (MOI) was 1-5. Cells were harvested to quantitate cytopathic effect using a neutral red dye assay as described.

HIV-1NL4-3clone1-D4 = type: cell-based; settings: for efficacy against the L-chicoric acid resistant clone: compared with parental HIVNL4-3
Procedure: (§1) Cloning and sequencing of virus from the HIVNL4-3 passaged in the presence of 8 μM L-chicoric acid was undertaken to determine the molecular basis for resistance to L-chicoric acid and to isolate a resistant HIV clone.
This cloning was accomplished through site-directed mutagenesis introducing several silent mutations immediately upstream and downstream of the integrase gene. These mutations generated two unique restriction sites: an upstream SacII and a downstream XbaI (FIG. 15). Introduction of these mutations allowed the entire integrase gene with only minimal upstream and downstream nucleotides to be digested and “swapped” between drug-resistant and drug-sensitive clones.

[1] = tested on: HIVNL4-3 passaged in the presence of 8 μM L-chicoric acid; assay: Cytopathicity assay against virus passaged in 8 μM L-chicoric acid; type: cell-based, HIV; settings: FIG. 14
Procedure: HIVNL4-3 plasmid (a gift from Dr. P. Krogstad, UCLA, Los Angeles, Calif.), was transfected in HeLa cells using Lipofectin® (Gibco/BRL). Excess DNA was removed by washing and cells were co-cultured with H9 cells for 18 hours. The H9 cells were removed and re-cultured in growth medium. When the culture was 100% positive for HIV antigens by indirect immunofluorescence, the virus was inoculated onto H9 cells and incubated at 37° C. for several weeks in the presence of 2 μM L-chicoric acid. When this culture was 100% positive the virus was isolated and one aliquot was passaged in a similar manner in 4 μM L-chicoric acid. Finally, virus was cultured in the presence of 8 μM L-chicoric acid and the resultant virus filter-clarified, aliquoted, and stored at −70° C.
as §1

HIV-1NL4-3 = assay: Anti-HIV cytopathicity assay against parental molecular clone; type: cell-based
Procedure: as §1
Assays, as described above, to determine the ED50 for a given compound against the molecular clone HIVNL4-3clone1-D4 and the parental clone HIVNL4-3 give an indication of the selectivity of the compound for inhibition of HIV replication through IN. Resistance to a compound, as measured by an increased ED50, by clone HIVNL4-3clone1-D4, implies selectivity of the compound for IN. Thus clone HIVNL4-3clone1-D4 can be used to screen candidate IN inhibitors for selectivity.

## Di-3,4-dihydrodihydroxybenzylidine succinic acid [Compound 38]
HIV-1 IN
  IC50: 858 nM
HIVLAI
  EC50: 4400 nM

## Dicaffeoyl-L-tartaric acid [Compound 1]
HIV-1NL4-3clone1-D4
  efficacy against the L-chicoric acid resistant clone: reduced efficacy
HIV-1NL4-3clone1-D4; listed as L-chicoric acid
  efficacy against the L-chicoric acid resistant clone: resistant
HIV-1NL4-3clone1-D4; mean of triplicate infections, read-out: ED50 HIVNL4-3clone1-D4
  EC50: 61200 nM
[1]
  resistance of passaged virus to the compound: completely resistant
HIV-1NL4-3; control virus passaged without inhibitor, FIG. 14, read-out: ED50 against HIVNL4-3 control virus
  EC50: 400 nM
HIV-1NL4-3; mean of triplicate infections, read-out: ED50 HIVNL4-3
  EC50: 780 nM
